Assay results taken from PubChem BioAssay AID1259407 (Chemical Carcinogenesis Research Information System (CCRIS), 2018).
The source made the active and inactive calls. The rule behind the calls is not given here.

System: CCRIS mutagenicity, Ames/micronucleus/aberration tests
Assay: CCRIS mutagenicity studies
[1] = Test System: AMES SALMONELLA TYPHIMURIUM, Strain/Indicator: TA98, Metabolic Activation: NONE, Method: PREINCUBATION
[2] = Test System: AMES SALMONELLA TYPHIMURIUM, Strain/Indicator: TA100, Metabolic Activation: NONE, Method: PREINCUBATION
[3] = Test System: AMES SALMONELLA TYPHIMURIUM, Strain/Indicator: TA98, Metabolic Activation: NONE, Method: STANDARD PLATE
[4] = Test System: AMES SALMONELLA TYPHIMURIUM, Strain/Indicator: TA100, Metabolic Activation: NONE, Method: STANDARD PLATE

Which results are given for N[C@@H](CSc1c(Cl)c(Cl)c(Cl)c(Cl)c1Cl)C(=O)O?
mutagenic call [1]: inactive; negative; mutagenic call (Test System: AMES SALMONELLA TYPHIMURIUM, Strain/Indicator: TA98, Metabolic Activation: RAT, LIVER OR KIDNEY, MICROSOMES, Method: PREINCUBATION): inactive; negative; mutagenic call [2]: inactive; negative; mutagenic call (Test System: AMES SALMONELLA TYPHIMURIUM, Strain/Indicator: TA100, Metabolic Activation: RAT, LIVER OR KIDNEY, MICROSOMES, Method: PREINCUBATION): inactive; negative; mutagenic call (Test System: AMES SALMONELLA TYPHIMURIUM, Strain/Indicator: TA102, Metabolic Activation: NONE, Method: PREINCUBATION): inactive; negative; mutagenic call (Test System: AMES SALMONELLA TYPHIMURIUM, Strain/Indicator: TA102, Metabolic Activation: RAT, LIVER OR KIDNEY, MICROSOMES, Method: PREINCUBATION): inactive; negative; mutagenic call (Test System: AMES SALMONELLA TYPHIMURIUM, Strain/Indicator: TA2638, Metabolic Activation: NONE, Method: PREINCUBATION): inactive; negative; mutagenic call (Test System: AMES SALMONELLA TYPHIMURIUM, Strain/Indicator: TA2638, Metabolic Activation: RAT, LIVER OR KIDNEY, MICROSOMES, Method: PREINCUBATION): inactive; negative

Which mutagenic call [3] does the source give for CCCCCCCCCCCCOC(=O)CCSCCC(=O)OCCCCCCCCCCCC here?
Its mutagenic call is “inactive; negative”.

And the mutagenic call (Test System: AMES SALMONELLA TYPHIMURIUM, Strain/Indicator: TA98, Metabolic Activation: RAT, LIVER, S-9, AROCLOR 1254, Method: STANDARD PLATE)?
Its mutagenic call is “inactive; negative”.

And the mutagenic call [4]?
The mutagenic call was “inactive; negative”.

What about the mutagenic call (Test System: AMES SALMONELLA TYPHIMURIUM, Strain/Indicator: TA100, Metabolic Activation: RAT, LIVER, S-9, AROCLOR 1254, Method: STANDARD PLATE) of the same molecule?
The mutagenic call was “inactive; negative”.

And the mutagenic call (Test System: AMES SALMONELLA TYPHIMURIUM, Strain/Indicator: TA1535, Metabolic Activation: NONE, Method: STANDARD PLATE)?
The mutagenic call was “inactive; negative”.

What about the mutagenic call (Test System: AMES SALMONELLA TYPHIMURIUM, Strain/Indicator: TA1535, Metabolic Activation: RAT, LIVER, S-9, AROCLOR 1254, Method: STANDARD PLATE) of the same molecule?
The mutagenic call was “inactive; negative”.

What about the mutagenic call (Test System: AMES SALMONELLA TYPHIMURIUM, Strain/Indicator: TA1537, Metabolic Activation: NONE, Method: STANDARD PLATE) of the same molecule?
The mutagenic call was “inactive; negative”.

And the mutagenic call (Test System: AMES SALMONELLA TYPHIMURIUM, Strain/Indicator: TA1537, Metabolic Activation: RAT, LIVER, S-9, AROCLOR 1254, Method: STANDARD PLATE)?
Its mutagenic call is “inactive; negative”.

What about the mutagenic call (Test System: AMES SALMONELLA TYPHIMURIUM, Strain/Indicator: TA1538, Metabolic Activation: NONE, Method: STANDARD PLATE) of the same molecule?
The mutagenic call was “inactive; negative”.

What about the mutagenic call (Test System: AMES SALMONELLA TYPHIMURIUM, Strain/Indicator: TA1538, Metabolic Activation: RAT, LIVER, S-9, AROCLOR 1254, Method: STANDARD PLATE) of the same molecule?
Its mutagenic call is “inactive; negative”.

And the mutagenic call (Test System: E. COLI, Strain/Indicator: WP2, Metabolic Activation: NONE, Method: STANDARD PLATE)?
Its mutagenic call is “inactive; negative”.

And the mutagenic call (Test System: E. COLI, Strain/Indicator: WP2, Metabolic Activation: RAT, LIVER, S-9, AROCLOR 1254, Method: STANDARD PLATE)?
The mutagenic call was “inactive; negative”.

With Nc1ccc2nc3ccc(N)cc3nc2c1 as the molecule, how does the mutagenic call [1] read?
The mutagenic call was “inactive; negative”.

And the mutagenic call (Test System: AMES SALMONELLA TYPHIMURIUM, Strain/Indicator: TA98, Metabolic Activation: RAT, LIVER, S-9, PCB, Method: PREINCUBATION)?
Its mutagenic call is “active; positive”.

For CCCN(CCC)c1c([N+](=O)[O-])cc(C(F)(F)F)cc1[N+](=O)[O-], which mutagenic call (Test System: AMES SALMONELLA TYPHIMURIUM, Strain/Indicator: TA98, Metabolic Activation: LIVER S-9) is on record?
Its mutagenic call is “inactive; negative”.

What about the mutagenic call (Test System: AMES SALMONELLA TYPHIMURIUM, Strain/Indicator: TA98, Metabolic Activation: NONE) of the same molecule?
The mutagenic call was “inactive; negative”.

And the mutagenic call (Test System: AMES SALMONELLA TYPHIMURIUM, Strain/Indicator: TA100, Metabolic Activation: LIVER S-9)?
The mutagenic call was “inactive; negative”.

What about the mutagenic call (Test System: AMES SALMONELLA TYPHIMURIUM, Strain/Indicator: TA100, Metabolic Activation: NONE) of the same molecule?
Its mutagenic call is “inactive; negative”.

And the mutagenic call (Test System: AMES SALMONELLA TYPHIMURIUM, Strain/Indicator: TA1535, Metabolic Activation: LIVER S-9)?
The mutagenic call was “inactive; negative”.

And the mutagenic call (Test System: AMES SALMONELLA TYPHIMURIUM, Strain/Indicator: TA1535, Metabolic Activation: NONE)?
The mutagenic call was “inactive; negative”.

And the mutagenic call (Test System: AMES SALMONELLA TYPHIMURIUM, Strain/Indicator: TA1537, Metabolic Activation: LIVER S-9)?
The mutagenic call was “inactive; negative”.

And the mutagenic call (Test System: AMES SALMONELLA TYPHIMURIUM, Strain/Indicator: TA1537, Metabolic Activation: NONE)?
Its mutagenic call is “inactive; negative”.

What about the mutagenic call (Test System: AMES SALMONELLA TYPHIMURIUM, Strain/Indicator: TA1538, Metabolic Activation: LIVER S-9) of the same molecule?
The mutagenic call was “inactive; negative”.

And the mutagenic call (Test System: AMES SALMONELLA TYPHIMURIUM, Strain/Indicator: TA1538, Metabolic Activation: NONE)?
Its mutagenic call is “inactive; negative”.

What about the mutagenic call (Test System: CHINESE HAMSTER V-79 CELLS, Strain/Indicator: HGPRT, Metabolic Activation: LIVER S-9) of the same molecule?
The mutagenic call was “inactive; negative”.

What about the mutagenic call (Test System: CHINESE HAMSTER V-79 CELLS, Strain/Indicator: HGPRT, Metabolic Activation: NONE) of the same molecule?
Its mutagenic call is “inactive; negative”.

What about the mutagenic call (Test System: CHO-KI CELLS, Strain/Indicator: HGPRT, Metabolic Activation: LIVER S-9) of the same molecule?
Its mutagenic call is “inactive; negative”.

And the mutagenic call (Test System: CHO-KI CELLS, Strain/Indicator: HGPRT, Metabolic Activation: NONE)?
The mutagenic call was “inactive; negative”.

And the mutagenic call (Test System: UDS HELA CELLS, Metabolic Activation: LIVER S-9)?
The mutagenic call was “inactive; negative”.

What about the mutagenic call (Test System: UDS HELA CELLS, Metabolic Activation: NONE) of the same molecule?
The mutagenic call was “inactive; negative”.

And the mutagenic call (Test System: UDS RAT HEPATOCYTES, Metabolic Activation: NONE)?
Its mutagenic call is “inactive; negative”.

Which mutagenic call [3] does the source give for N=C(N)c1ccc2cc(C(=N)N)[nH]c2c1 here?
The mutagenic call was “inactive; negative”.

And the mutagenic call (Test System: AMES SALMONELLA TYPHIMURIUM, Strain/Indicator: TA98, Metabolic Activation: RAT, LIVER, S-9, PHENOBARBITAL, Method: STANDARD PLATE)?
Its mutagenic call is “inactive; negative”.

And the mutagenic call [4]?
The mutagenic call was “inactive; negative”.

What about the mutagenic call (Test System: AMES SALMONELLA TYPHIMURIUM, Strain/Indicator: TA100, Metabolic Activation: RAT, LIVER, S-9, PHENOBARBITAL, Method: STANDARD PLATE) of the same molecule?
The mutagenic call was “inactive; negative”.

For CC(=O)Nc1cccc2cccnc12, which mutagenic call [1] is on record?
The mutagenic call was “inactive; negative”.

What about the mutagenic call (Test System: AMES SALMONELLA TYPHIMURIUM, Strain/Indicator: TA98, Metabolic Activation: RAT, LIVER, S-9, KANECHLOR 500, Method: PREINCUBATION) of the same molecule?
Its mutagenic call is “inactive; negative”.

What about the mutagenic call [2] of the same molecule?
Its mutagenic call is “inactive; negative”.

What about the mutagenic call (Test System: AMES SALMONELLA TYPHIMURIUM, Strain/Indicator: TA100, Metabolic Activation: RAT, LIVER, S-9, KANECHLOR 500, Method: PREINCUBATION) of the same molecule?
Its mutagenic call is “active; positive”.

What about the mutagenic call (Test System: AMES SALMONELLA TYPHIMURIUM, Strain/Indicator: TA100, Metabolic Activation: RAT, LIVER, S-9, PHENOBARBITAL AND 5,6-BENZOFLAVONE, Method: PREINCUBATION) of the same molecule?
The mutagenic call was “active; positive”.

What about the mutagenic call (Test System: AMES SALMONELLA TYPHIMURIUM, Strain/Indicator: TA100, Metabolic Activation: S-9, Method: PREINCUBATION) of the same molecule?
The mutagenic call was “active; positive”.

O=C(Nc1cccc([N+](=O)[O-])c1)c1csc([N+](=O)[O-])c1 was tested. Which mutagenic call [3] did it give?
Its mutagenic call is “active; positive”.

And the mutagenic call [4]?
The mutagenic call was “active; positive”.
